Assay results from patent publication US20160206539A1, “COMPOSITION FOR SKIN AND SCALP HEALTH” (CONOPCO, INC., d/b/a UNILEVER, priority 2013, published 2016).

Columns and labels:
[1] = tested on: Neonatal Human Epidermal Melanocytes (NHEM) and HaCat; assay: Reduction in melanin content assay (MCA) in melanocyte/keratinocyte co-culture; settings: 72 hours treatment, relative to vehicle control
Xanthomonas oryzae = settings: dilute solution sprayed on rice inoculated with Xanthomonas oryzae; cited from earlier work

CCc1ccc(O)cc1O [Ethyl resorcinol, reference compound]
Reduction in melanin content ([1]; 0.00014 wt % active (Example A)): 21.5%

C=C1C(=O)OC2C[C@]3(C)C(CC12)C(=C)C(O)C[C@H]3O (some centres unmarked) [Granilin]
Reduction in melanin content ([1]; 0.0005 wt % active (Example 1)): 30.4% | Reduction in melanin content ([1]; 0.00075 wt % active (Example 2)): 47.6% | Reduction in melanin content ([1]; 0.001 wt % active (Example 3)): 52.3% | Decrease of infection on the leaves (Xanthomonas oryzae): about 75%
